Data on eight compounds can be found in PubChem BioAssay (NCI).

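In this assay, cells in 96-well plates receive the compound at five concentrations for 48 hours. Endpoints are linearly interpolated between the surrounding concentrations. TGI denotes the concentration required for complete inhibition of growth.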 Where a SMILES comes first, the peptide text is derived from it. [ ]: non-standard residue; d: D form. The star is where a group is joined. ξ: configuration not given here. NMeF = CN[CH](Cc1ccccc1)C(=O)O; ξNMe2Val = CC(C)C(C(=O)*)N(C)C; NMeV = CN[CH](C(=O)O)C(C)C; OtBu = CC(C)(C)O*

Test systems include ACHN renal; COLO 205 colon; HCT-15 colon; HOP-62 NSCLC; IGROV1 ovarian; KM20L2 colon; LOX IMVI melanoma; MOLT-4 leukemia; NCI-H23 lung; NCI-H460 lung; OVCAR-3 ovarian; SK-MEL-5 melanoma; CAKI-1 renal; HOP-92 NSCLC; MALME-3M melanoma; MDA-MB-231 breast; MDA-N; OVCAR-5 ovarian; PC-3 prostate; RXF 393 renal.
Assay in all cases: NCI tumour cell line growth inhibition, 48 h

Regarding `CC(C)C(C(=O)N(C)C(Cc1ccccc1)C(=O)N(C)C(C(=O)N(C)C(C(=O)N1CCCC1C(=O)OC(C)(C)C)C(C)C)C(C)C)N(C)C` (stereo not given) (ξNMe2Val-[NMeF][NMeV][NMeV]P-OtBu; configuration not given here), the TGI is over 100 µM in the test with ACHN renal; over 100 µM in the test on COLO 205 colon; over 100 µM in the test with HCT-15 colon; over 100 µM in the test with HOP-62 NSCLC; over 100 µM with IGROV1 ovarian; 46.4 µM with KM20L2 colon. Further, the TGI in the test with LOX IMVI melanoma was 55.5 µM; in the test with MOLT-4 leukemia it was 33.7 µM; in the test on NCI-H23 lung, over 100 µM; with NCI-H460 lung, over 100 µM; in the test with OVCAR-3 ovarian it was over 100 µM; with SK-MEL-5 melanoma, 38.8 µM.
Turning to `CCOC(=O)NN(C(=O)OCC)C(C(=O)c1ccccc1)N(NC(=O)OCC)C(=O)OCC`, the TGI with ACHN renal, in the test with CAKI-1 renal, with COLO 205 colon, in the test on HCT-15 colon, in the test with HOP-62 NSCLC and in the test on HOP-92 NSCLC was over 100 µM in each case. The TGI in the test with IGROV1 ovarian, in the test with LOX IMVI melanoma, in the test on MALME-3M melanoma, in the test with MDA-MB-231 breast, in the test with MDA-N and in the test with MOLT-4 leukemia was over 100 µM in each case. In addition, the TGI in the test on NCI-H23 lung, in the test with NCI-H460 lung, in the test on OVCAR-3 ovarian, in the test with OVCAR-5 ovarian, in the test on PC-3 prostate and in the test on RXF 393 renal was over 100 µM throughout. Also, the TGI in the test on SK-MEL-5 melanoma was over 100 µM.
On to `COc1cc(/C=C/C(=N\NC(N)=S)c2sc(NNC(C)=O)nc2C)ccc1O`, for which the TGI in the test on ACHN renal, in the test with CAKI-1 renal, in the test with COLO 205 colon, in the test on HCT-15 colon, in the test with HOP-62 NSCLC and in the test on HOP-92 NSCLC was over 100 µM each time. In addition, the TGI in the test on IGROV1 ovarian, in the test with LOX IMVI melanoma, in the test on MALME-3M melanoma, in the test with MDA-MB-231 breast, in the test with MDA-N and with MOLT-4 leukemia was over 100 µM throughout. The TGI in the test with NCI-H23 lung, in the test on NCI-H460 lung, in the test on OVCAR-3 ovarian, with OVCAR-5 ovarian, in the test on PC-3 prostate and in the test with RXF 393 renal was over 100 µM each time. For the same compound, the TGI in the test on SK-MEL-5 melanoma was over 100 µM.
For the compound `C(=C/c1nnnn1-c1ccccc1)/Nc1ccccc1`, the TGI in the test on ACHN renal is over 100 µM; in the test on CAKI-1 renal, over 100 µM; in the test with COLO 205 colon, over 100 µM; in the test with HCT-15 colon it was 44.2 µM; in the test with HOP-62 NSCLC, 81.6 µM; in the test with HOP-92 NSCLC, 87.3 µM. The TGI was over 100 µM in the test with IGROV1 ovarian; over 100 µM with LOX IMVI melanoma; over 100 µM with MALME-3M melanoma; over 100 µM in the test on MDA-MB-231 breast; 70.4 µM in the test on MDA-N; over 100 µM in the test on MOLT-4 leukemia. For the same compound, the TGI was 79.2 µM with NCI-H23 lung; over 100 µM in the test with NCI-H460 lung; 96 µM in the test on OVCAR-3 ovarian; over 100 µM with OVCAR-5 ovarian; over 100 µM in the test on PC-3 prostate; over 100 µM in the test with RXF 393 renal. Also, the TGI with SK-MEL-5 melanoma was 27.7 µM.
For `COC(=O)c1ccccc1C1CN=NC12Cc1ccc3c(c1C2=O)CCC3` (stereo not given), the TGI in the test on ACHN renal, in the test with CAKI-1 renal, in the test on COLO 205 colon, with HCT-15 colon, with HOP-62 NSCLC and in the test with HOP-92 NSCLC was over 100 µM each time. The TGI with IGROV1 ovarian, in the test with LOX IMVI melanoma, in the test on MALME-3M melanoma, in the test with MDA-MB-231 breast, with MDA-N and in the test with MOLT-4 leukemia was over 100 µM each time. Besides, the TGI with NCI-H23 lung, with NCI-H460 lung, in the test with OVCAR-3 ovarian, in the test on OVCAR-5 ovarian, in the test with PC-3 prostate and with RXF 393 renal was over 100 µM throughout. Besides, the TGI with SK-MEL-5 melanoma was over 100 µM.
On to `Cc1[nH]c2nccn2c(=O)c1CCO`, for which the TGI with ACHN renal, with CAKI-1 renal, in the test with COLO 205 colon, in the test with HCT-15 colon, in the test with HOP-62 NSCLC and with HOP-92 NSCLC was over 10 µM in each case. The TGI with IGROV1 ovarian, with LOX IMVI melanoma, in the test with MALME-3M melanoma, with MDA-MB-231 breast, in the test on MDA-N and in the test with MOLT-4 leukemia was over 10 µM throughout. For the same compound, the TGI in the test on NCI-H23 lung, in the test on NCI-H460 lung, in the test with OVCAR-3 ovarian, with OVCAR-5 ovarian, in the test with PC-3 prostate and in the test on RXF 393 renal was over 10 µM throughout. The same compound yielded a TGI with SK-MEL-5 melanoma of over 10 µM.
Take `CN(C)CC1CCC/C(=C\c2ccc(OC(=O)/C=C/c3ccc(Cl)cc3)cc2)C1=O` (stereo not given): the TGI amounted to 5.73 µM in the test on ACHN renal; 5.12 µM in the test with CAKI-1 renal; 2.79 µM with COLO 205 colon; 6.91 µM in the test on HCT-15 colon; 14.8 µM in the test with HOP-62 NSCLC; 4.34 µM in the test on HOP-92 NSCLC. Moreover, the TGI with IGROV1 ovarian is 3.35 µM; in the test on LOX IMVI melanoma, 9.39 µM; in the test on MALME-3M melanoma, 16.3 µM; with MDA-MB-231 breast, 21 µM; in the test with MDA-N, 18.6 µM; in the test on MOLT-4 leukemia it was 2.86 µM. Moreover, the TGI is 14.1 µM in the test on NCI-H23 lung; 18.1 µM in the test with NCI-H460 lung; 12.4 µM in the test on OVCAR-3 ovarian; 25.7 µM in the test with OVCAR-5 ovarian; 11.7 µM in the test on PC-3 prostate; 4.08 µM in the test with RXF 393 renal. Further, the TGI in the test with SK-MEL-5 melanoma was determined as 9.46 µM.
For `CCN(C(=O)N[C@H](C(=O)N[C@@H](CSC)C(=O)N[C@@H](C)C(=O)OC)C(C)C)c1ccccc1`, the TGI came out at 28.9 µM in the test on ACHN renal; 36.3 µM with CAKI-1 renal; 32.4 µM with COLO 205 colon; 36.2 µM with HCT-15 colon; 36.4 µM with HOP-62 NSCLC; 26.3 µM in the test on HOP-92 NSCLC. The TGI with IGROV1 ovarian worked out at 23.9 µM; with LOX IMVI melanoma it was 23.5 µM; in the test on MALME-3M melanoma, 26.6 µM; in the test on MDA-MB-231 breast it was 29 µM; in the test with MDA-N it was 36.2 µM; with MOLT-4 leukemia, 26.7 µM. In addition, the TGI in the test on NCI-H23 lung came to 33.4 µM; with NCI-H460 lung it was 32.5 µM; in the test with OVCAR-3 ovarian, 34.5 µM; in the test with OVCAR-5 ovarian it was 29.5 µM; in the test on PC-3 prostate, 31.6 µM; in the test with RXF 393 renal, 32.2 µM. In the test on SK-MEL-5 melanoma, this compound gave a TGI of 30.8 µM.
